Measured values reported in patent publication US20090137577A1, “HETEROCYCLIC COMPOUNDS” (Pfizer Inc., priority 2007, published 2009).

Molecular target: T1, mGluR2 receptor (metabotropic glutamate receptor 2) (Homo sapiens, UniProt Q14416)
T1 construct: expressed in transfected cells
Test: mGluR2 potentiator screen (FLIPR, EC10-EC20 glutamate challenge);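 also: HEK cells stably expressing human mGluR2 with GL15 G protein, Fluo-4 calcium fluorescence read on FLIPR, compounds added before an EC10-EC20 glutamate challenge to detect potentiation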
Format: cell-based
Details: geometric mean; read-out: mGluR 2 EC50 (geometric mean)

T1 sequence (Q14416 19-872, species assumed): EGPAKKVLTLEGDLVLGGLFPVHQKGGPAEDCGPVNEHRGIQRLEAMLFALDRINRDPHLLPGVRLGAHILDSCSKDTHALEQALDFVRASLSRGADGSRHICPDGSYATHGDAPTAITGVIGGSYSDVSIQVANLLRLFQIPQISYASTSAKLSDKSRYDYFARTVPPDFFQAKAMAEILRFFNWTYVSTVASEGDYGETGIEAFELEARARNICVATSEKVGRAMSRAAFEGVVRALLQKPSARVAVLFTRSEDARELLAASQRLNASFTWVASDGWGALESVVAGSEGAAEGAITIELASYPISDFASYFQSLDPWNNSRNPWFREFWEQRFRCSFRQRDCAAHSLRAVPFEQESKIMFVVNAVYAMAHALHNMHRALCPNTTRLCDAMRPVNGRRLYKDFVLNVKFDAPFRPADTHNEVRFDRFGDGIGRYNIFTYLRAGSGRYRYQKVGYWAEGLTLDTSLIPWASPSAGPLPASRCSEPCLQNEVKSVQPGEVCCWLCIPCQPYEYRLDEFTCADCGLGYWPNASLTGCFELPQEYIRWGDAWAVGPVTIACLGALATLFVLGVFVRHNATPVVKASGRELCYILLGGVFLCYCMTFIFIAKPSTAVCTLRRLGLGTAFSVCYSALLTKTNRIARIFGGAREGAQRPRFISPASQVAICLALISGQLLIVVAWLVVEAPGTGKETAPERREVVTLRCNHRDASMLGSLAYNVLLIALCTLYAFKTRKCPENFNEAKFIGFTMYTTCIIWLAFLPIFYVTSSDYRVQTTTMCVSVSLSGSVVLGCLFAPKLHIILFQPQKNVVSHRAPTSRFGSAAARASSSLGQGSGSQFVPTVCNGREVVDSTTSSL

Row | Structure (SMILES) | EC50 [nM]
1 | CC(C)Oc1ccc(-c2ccc(CN3C[C@@H](C)OC3=O)cc2)c(F)c1 [Example 281] | 8.14
2 | COc1ccc(C(C)C)cc1-c1ccc(CN2C[C@@H](C)OC2=O)cn1 [Example 282] | 1470
3 | C[C@@H]1CN(Cc2ccc(NCC3CCCCC3)nc2)C(=O)O1 [Example 283, (5R)-3-({6-[(Cyclohexylmethyl)amino]pyridin-3-yl}methyl)-5-methyl-1,3-oxazolidin-2-one] | 1290
4 | C[C@@H]1CN(Cc2ccc(-c3cccc(F)c3F)c(F)c2)C(=O)O1 [Example 289] | 93.7
5 | Cc1cc(F)ccc1-c1ccc(CN2C[C@@H](C)OC2=O)cc1F [Example 290] | 130
6 | C[C@@H]1CN(Cc2ccc(-c3cccc(Cl)c3F)c(F)c2)C(=O)O1 [Example 291, (5R)-3-[(3′-chloro-2,2′-difluorobiphenyl-4-yl)methyl]-5-methyl-1,3-oxazolidin-2-one] | 59.6
7 | Cc1cc(CN2C[C@@H](C)OC2=O)ccc1Oc1ncc(Cl)cc1Cl [Example 296, (5R)-3-{4-[(3,5-Dichloropyridin-2-yl)oxy]-3-methylbenzyl}-5-methyl-1,3-oxazolidin-2-one] | 45.5
8 | C[C@@H]1CN(Cc2cnc(-c3cccc(F)c3F)c(F)c2)C(=O)O1 [Example 298, (5R)-3-{[6-(2,3-Difluorophenyl)-5-fluoropyridin-3-yl]methyl}-5-methyl-1,3-oxazolidin-2-one] | 1360
9 | Cc1cc(CN2C[C@@H](C)OC2=O)ccc1-c1ccc(F)cc1F [Example 299, (5R)-3-[(2′,4′-Difluoro-2-methylbiphenyl-4-yl)methyl]-5-methyl-1,3-oxazolidin-2-one] | 167
10 | C[C@@H]1CN(Cc2ccc(CN3CCc4cc(Cl)ccc43)cc2)C(=O)O1 [Example 300, (5R)-3-{4-[(5-Chloro-2,3-dihydro-1H-indol-1-yl)methyl]benzyl}-5-methyl-1,3-oxazolidin-2-one] | 94.5
11 | C[C@@H]1CN(Cc2ccc(CN3CCc4ccccc43)cc2)C(=O)O1 [Example 301, (5R)-3-[4-(2,3-Dihydro-1H-indol-1-ylmethyl)benzyl]-5-methyl-1,3-oxazolidin-2-one] | 389
12 | O=C1OC(c2cccnc2)CN1Cc1ccc(-c2ccc(OC(F)(F)F)cc2F)cc1 (stereo not shown) [Example 303, 3-{[2′-Fluoro-4′-(trifluoromethoxy)biphenyl-4-yl]methyl}-5-pyridin-3-yl-1,3-oxazolidin-2-one] | 77.7
13 | CCN(C)CC1CN(Cc2ccc(-c3ccc(F)cc3F)cc2)C(=O)O1 (stereo not shown) [Example 304, 3-[(2′,4′-difluorobiphenyl-4-yl)methyl]-5-{[ethyl(methyl)amino]methyl}-1,3-oxazolidin-2-one] | 581
14 | C[C@@H]1CN(Cc2ccc(COc3ccc(F)cc3F)cc2)C(=O)O1 [Example 305, (5R)-3-{4-[(2,4-Difluorophenoxy)methyl]benzyl}-5-methyl-1,3-oxazolidin-2-one] | 416
15 | C[C@@H]1CN(Cc2ccc(-c3ccc(OC(F)F)cc3Cl)nc2)C(=O)O1 [Example 312] | 578
16 | C[C@@H]1CN(Cc2ccc(-c3ccc(OC(F)F)cc3)nc2)C(=O)O1 [Example 313] | 531
17 | C[C@@H]1CN(Cc2ccc(-c3ccc(Cl)cc3OC(F)(F)F)cc2)C(=O)O1 [Example 316] | 50.4
18 | C[C@@H]1CN(Cc2ccc(/C=C/c3ccccc3)cc2)C(=O)O1 [Example 317, (5R)-5-methyl-3-{4-[(E)-2-phenylvinyl]benzyl}-1,3-oxazolidin-2-one] | 36.4
19 | C[C@@H]1CN(Cc2ccc(CCc3ccccc3)cc2)C(=O)O1 [Example 318, (5R)-5-methyl-3-[4-(2-phenylethyl)benzyl]-1,3-oxazolidin-2-one] | 111

The remaining lines, values ahead:

Row | EC50 [nM] | Structure (SMILES)
20 | 309 | Cc1cc(CN2C[C@@H](C)OC2=O)ccc1OCc1ccc(C(F)(F)F)cc1 [Example 284, (5R)-5-Methyl-3-(3-methyl-4-{[4-(trifluoromethyl)benzyl]oxy}benzyl)-1,3-oxazolidin-2-one]
21 | 217 | Cc1cc(CN2C[C@@H](C)OC2=O)ccc1OCc1ccc(F)cc1C(F)(F)F [Example 285, (5R)-3-(4-{[4-fluoro-2-(trifluoromethyl)benzyl]oxy}-3-methylbenzyl)-5-methyl-1,3-oxazolidin-2-one]
22 | 32.5 | C[C@@H]1CN(Cc2ccc(OCC3CCCCC3)c(Cl)c2)C(=O)O1 [Example 286, (5R)-3-[3-chloro-4-(cyclohexylmethoxy)benzyl]-5-methyl-1,3-oxazolidin-2-one]
23 | 174 | C[C@@H]1CN(Cc2ccc(OCCC3CCCCC3)c(Cl)c2)C(=O)O1 [Example 287, (5R)-3-[3-chloro-4-(2-cyclohexylethoxy)benzyl]-5-methyl-1,3-oxazolidin-2-one]
24 | 36.9 | C[C@@H]1CN(Cc2ccc(-c3ccc(F)cc3F)c(F)c2)C(=O)O1 [Example 288]
25 | 56 | C[C@@H]1CN(Cc2ccc(-c3ccc(C(F)(F)F)cc3F)c(F)c2)C(=O)O1 [Example 292]
26 | < 59.9 | COc1ccc(-c2ccc(CN3C[C@@H](C)OC3=O)cc2F)c(F)c1F [Example 293]
27 | 327 | C[C@@H]1CN(Cc2ccc(-c3cnc4ccccc4c3)c(F)c2)C(=O)O1 [Example 294]
28 | 804 | COc1ccc(-c2ccc(CN3C[C@@H](C)OC3=O)cc2F)cn1 [Example 295]
29 | 1990 | C[C@@H]1CN(Cc2ccc(OCC3CCC(NC4CCC4)CC3)cc2)C(=O)O1 (stereo partly drawn) [Example 297, (5R)-3-(4-{[4-(Cyclobutylamino)cyclohexyl]methoxy}benzyl)-5-methyl-1,3-oxazolidin-2-one]
30 | 78.9 | O=C1OC(c2cccnc2)CN1Cc1ccc(-c2ccc(F)cc2F)cc1 (stereo not shown) [Example 302, 3-[(2′,4′-Difluorobiphenyl-4-yl)methyl]-5-pyridin-3-yl-1,3-oxazolidin-2-one]
31 | 327 | CC(C1CCC1)N1CCN(Cc2ccc(-c3ccc(F)cc3F)cc2)C(=O)C1 (stereo not shown) [Example 306, 4-(1-Cyclobutylethyl)-1-[(2′,4′-difluorobiphenyl-4-yl)methyl]piperazin-2-one]
32 | 1360 | CN(C)CC1CN(Cc2ccc(-c3ccc(F)cc3F)cc2)C(=O)O1 (stereo not shown) [Example 307, 3-[(2′,4′-difluorobiphenyl-4-yl)methyl]-5-[(dimethylamino)methyl]-1,3-oxazolidin-2-one]
33 | 18 | CC1(C)CN(Cc2ccc(-c3ccc(F)cc3F)cc2)C(=O)O1 [Example 314]
34 | 41.4 | CCC1CN(Cc2ccc(-c3ccc(F)cc3F)cc2)C(=O)O1 (stereo not shown) [Example 315]
